Assay in all cases: biochemical
In assay [1] the target is T1, safety screen panel of human pharmacological targets (Homo sapiens, UniProt P25101).
T1 sequence (P25101 21-427): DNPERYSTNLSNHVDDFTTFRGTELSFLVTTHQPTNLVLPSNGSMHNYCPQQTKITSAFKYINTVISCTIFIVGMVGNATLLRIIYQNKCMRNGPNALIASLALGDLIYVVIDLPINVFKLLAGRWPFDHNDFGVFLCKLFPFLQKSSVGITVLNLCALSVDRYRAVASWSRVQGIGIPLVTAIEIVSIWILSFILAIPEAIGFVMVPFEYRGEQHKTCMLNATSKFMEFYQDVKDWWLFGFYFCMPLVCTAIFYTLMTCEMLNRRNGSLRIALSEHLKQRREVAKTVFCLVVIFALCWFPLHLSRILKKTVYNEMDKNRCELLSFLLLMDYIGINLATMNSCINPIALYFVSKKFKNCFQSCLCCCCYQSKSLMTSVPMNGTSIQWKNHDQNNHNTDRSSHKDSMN
To be noted: read-out: percent inhibition: ETA (h) (agonist radioligand).

In assay [2] the target is T2, safety screen panel of human pharmacological targets (Homo sapiens, UniProt P32238).
T2 sequence (P32238 1-428): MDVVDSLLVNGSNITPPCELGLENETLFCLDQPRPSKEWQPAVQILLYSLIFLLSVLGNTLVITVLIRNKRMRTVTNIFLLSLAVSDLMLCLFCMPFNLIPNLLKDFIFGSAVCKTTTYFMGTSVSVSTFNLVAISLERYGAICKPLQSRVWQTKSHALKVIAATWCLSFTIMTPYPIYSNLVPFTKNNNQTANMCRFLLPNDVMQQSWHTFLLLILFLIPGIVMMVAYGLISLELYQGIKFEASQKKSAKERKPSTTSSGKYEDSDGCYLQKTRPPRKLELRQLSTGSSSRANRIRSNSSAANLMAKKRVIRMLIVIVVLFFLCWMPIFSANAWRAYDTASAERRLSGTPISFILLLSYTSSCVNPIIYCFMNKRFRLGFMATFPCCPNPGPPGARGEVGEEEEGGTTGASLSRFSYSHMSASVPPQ
To be noted: read-out: percent inhibition: CCK1 (CCKA) (h) (agonist radioligand).

The target in assay [3] is safety screen panel of human pharmacological targets (Homo sapiens, UniProt P25021). To be noted: read-out: percent inhibition: H2 (h) (antagonist radioligand).
The target in assay [4] is safety screen panel of human pharmacological targets (Homo sapiens, UniProt P08588). To be noted: read-out: percent inhibition: beta 1 (h) {agonist radioligand).
Assay [5] has as its target T3, safety screen panel of human pharmacological targets (Homo sapiens, UniProt P08908).
T3 sequence (P08908 1-422): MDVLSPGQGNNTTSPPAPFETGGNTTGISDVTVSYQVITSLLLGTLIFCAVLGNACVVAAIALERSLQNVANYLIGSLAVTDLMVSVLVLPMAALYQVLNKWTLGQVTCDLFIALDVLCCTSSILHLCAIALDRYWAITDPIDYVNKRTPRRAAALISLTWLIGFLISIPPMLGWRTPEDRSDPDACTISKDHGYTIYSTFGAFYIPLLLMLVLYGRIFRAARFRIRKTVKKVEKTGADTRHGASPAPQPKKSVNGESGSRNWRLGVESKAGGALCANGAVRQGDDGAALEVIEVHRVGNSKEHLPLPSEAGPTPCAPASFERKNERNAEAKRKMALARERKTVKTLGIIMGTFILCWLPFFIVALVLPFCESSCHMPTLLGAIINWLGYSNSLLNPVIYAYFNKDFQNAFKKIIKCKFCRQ
The conditions noted are these: read-out: percent inhibition: 5-HT1A(h) {agonist radiogilgand).

For assay [6], the target named is safety screen panel of human pharmacological targets (Homo sapiens, UniProt P41143). The conditions noted are these: read-out: percent inhibition: delta (DOP) (h) (agonist radioligand).
The target in assay [7] is safety screen panel of human pharmacological targets (Homo sapiens, UniProt P35367). The conditions noted are these: read-out: percent inhibition: H1 (h) (antagonist radioligand).
The target of assay [8] is T4, safety screen panel of human pharmacological targets (Homo sapiens, UniProt P10275).
T4 sequence (P10275 1-920): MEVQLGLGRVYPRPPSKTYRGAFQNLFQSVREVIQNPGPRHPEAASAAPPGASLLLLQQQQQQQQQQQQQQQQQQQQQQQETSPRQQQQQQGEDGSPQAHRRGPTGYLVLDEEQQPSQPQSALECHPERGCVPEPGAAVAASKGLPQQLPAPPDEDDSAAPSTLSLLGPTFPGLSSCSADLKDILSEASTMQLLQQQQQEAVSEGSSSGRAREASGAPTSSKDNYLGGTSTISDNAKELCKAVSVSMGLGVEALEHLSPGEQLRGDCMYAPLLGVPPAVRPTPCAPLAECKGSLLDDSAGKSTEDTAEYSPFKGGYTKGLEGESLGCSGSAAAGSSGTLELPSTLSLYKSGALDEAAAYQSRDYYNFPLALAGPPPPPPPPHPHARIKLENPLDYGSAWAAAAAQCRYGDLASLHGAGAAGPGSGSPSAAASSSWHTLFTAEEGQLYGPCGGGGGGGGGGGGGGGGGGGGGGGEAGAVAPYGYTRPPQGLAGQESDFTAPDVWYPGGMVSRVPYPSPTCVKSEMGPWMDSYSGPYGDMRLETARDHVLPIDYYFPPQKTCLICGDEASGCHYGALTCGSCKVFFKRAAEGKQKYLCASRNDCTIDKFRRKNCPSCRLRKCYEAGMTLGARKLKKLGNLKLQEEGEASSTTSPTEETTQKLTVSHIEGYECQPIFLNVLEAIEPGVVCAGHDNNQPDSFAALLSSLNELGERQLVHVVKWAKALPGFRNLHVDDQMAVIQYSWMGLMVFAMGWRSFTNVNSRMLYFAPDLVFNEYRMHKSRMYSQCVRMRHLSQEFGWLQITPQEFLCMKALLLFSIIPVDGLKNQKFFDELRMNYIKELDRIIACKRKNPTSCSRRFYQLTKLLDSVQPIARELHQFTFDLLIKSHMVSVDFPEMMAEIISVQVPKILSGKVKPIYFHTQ
To be noted: read-out: percent inhibition: AR (h) (agonist radioligand).

Assay [9] has as its target safety screen panel of human pharmacological targets (Homo sapiens, UniProt P35372). To be noted: read-out: percent inhibition: mu (MOP) (h) (agonist radioligand).
Assay [10] deals with safety screen panel of human pharmacological targets (Rattus norvegicus, UniProt P28564). The conditions noted are these: read-out: percent inhibition: 5-HT1B (antagonist radioligand).

The source of these data is patent US20230346952A1, “CANNABINOID GLYCOSIDE PRODRUGS AND METHODS OF SYNTHESIS” (priority 2015, published 2023).

safety screen panel of human pharmacological targets (Rattus norvegicus, UniProt P28564), sequence (P28564 whole entry): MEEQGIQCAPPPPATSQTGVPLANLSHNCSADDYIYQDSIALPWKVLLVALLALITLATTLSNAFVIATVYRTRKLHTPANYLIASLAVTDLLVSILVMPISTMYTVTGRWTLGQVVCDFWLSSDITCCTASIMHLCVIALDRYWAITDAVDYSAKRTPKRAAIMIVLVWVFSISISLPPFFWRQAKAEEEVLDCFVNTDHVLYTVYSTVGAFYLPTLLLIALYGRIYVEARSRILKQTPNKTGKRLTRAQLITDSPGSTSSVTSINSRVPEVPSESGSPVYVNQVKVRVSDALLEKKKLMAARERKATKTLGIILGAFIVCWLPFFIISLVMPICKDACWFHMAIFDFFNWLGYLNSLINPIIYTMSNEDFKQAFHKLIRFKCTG
safety screen panel of human pharmacological targets (Homo sapiens, UniProt P41143), sequence (P41143 whole entry): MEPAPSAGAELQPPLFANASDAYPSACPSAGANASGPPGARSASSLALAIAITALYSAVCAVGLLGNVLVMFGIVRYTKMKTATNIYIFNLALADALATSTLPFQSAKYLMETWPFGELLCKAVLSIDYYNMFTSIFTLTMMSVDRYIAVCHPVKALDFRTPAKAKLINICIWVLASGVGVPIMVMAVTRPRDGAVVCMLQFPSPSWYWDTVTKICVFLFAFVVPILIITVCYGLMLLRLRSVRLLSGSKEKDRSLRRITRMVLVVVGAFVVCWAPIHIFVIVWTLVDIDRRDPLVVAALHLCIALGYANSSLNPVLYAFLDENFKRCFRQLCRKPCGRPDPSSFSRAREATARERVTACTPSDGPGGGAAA
safety screen panel of human pharmacological targets (Homo sapiens, UniProt P08588), sequence (P08588 whole entry): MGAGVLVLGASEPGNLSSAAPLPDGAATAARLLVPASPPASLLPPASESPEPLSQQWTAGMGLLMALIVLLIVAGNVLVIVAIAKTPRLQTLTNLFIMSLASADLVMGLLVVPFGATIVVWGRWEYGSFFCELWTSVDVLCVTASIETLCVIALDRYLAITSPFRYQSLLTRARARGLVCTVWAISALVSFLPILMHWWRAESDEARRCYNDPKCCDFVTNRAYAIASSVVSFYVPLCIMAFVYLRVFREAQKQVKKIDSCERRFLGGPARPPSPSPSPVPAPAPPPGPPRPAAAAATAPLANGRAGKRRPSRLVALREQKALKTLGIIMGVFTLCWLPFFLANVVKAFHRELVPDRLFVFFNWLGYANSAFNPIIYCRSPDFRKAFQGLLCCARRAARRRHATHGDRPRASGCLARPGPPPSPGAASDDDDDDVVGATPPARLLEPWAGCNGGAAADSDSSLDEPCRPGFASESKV
safety screen panel of human pharmacological targets (Homo sapiens, UniProt P35372), sequence (P35372 whole entry): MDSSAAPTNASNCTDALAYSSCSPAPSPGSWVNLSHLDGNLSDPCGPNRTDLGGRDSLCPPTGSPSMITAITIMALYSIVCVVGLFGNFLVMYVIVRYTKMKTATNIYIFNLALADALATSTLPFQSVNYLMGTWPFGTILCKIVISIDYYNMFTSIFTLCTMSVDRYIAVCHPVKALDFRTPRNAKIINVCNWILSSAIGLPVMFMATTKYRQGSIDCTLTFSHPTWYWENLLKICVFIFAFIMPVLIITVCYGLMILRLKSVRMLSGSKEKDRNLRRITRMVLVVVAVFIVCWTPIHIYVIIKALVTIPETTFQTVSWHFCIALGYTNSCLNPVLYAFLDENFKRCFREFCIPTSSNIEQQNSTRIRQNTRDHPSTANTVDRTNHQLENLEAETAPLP
safety screen panel of human pharmacological targets (Homo sapiens, UniProt P35367), sequence (P35367 whole entry): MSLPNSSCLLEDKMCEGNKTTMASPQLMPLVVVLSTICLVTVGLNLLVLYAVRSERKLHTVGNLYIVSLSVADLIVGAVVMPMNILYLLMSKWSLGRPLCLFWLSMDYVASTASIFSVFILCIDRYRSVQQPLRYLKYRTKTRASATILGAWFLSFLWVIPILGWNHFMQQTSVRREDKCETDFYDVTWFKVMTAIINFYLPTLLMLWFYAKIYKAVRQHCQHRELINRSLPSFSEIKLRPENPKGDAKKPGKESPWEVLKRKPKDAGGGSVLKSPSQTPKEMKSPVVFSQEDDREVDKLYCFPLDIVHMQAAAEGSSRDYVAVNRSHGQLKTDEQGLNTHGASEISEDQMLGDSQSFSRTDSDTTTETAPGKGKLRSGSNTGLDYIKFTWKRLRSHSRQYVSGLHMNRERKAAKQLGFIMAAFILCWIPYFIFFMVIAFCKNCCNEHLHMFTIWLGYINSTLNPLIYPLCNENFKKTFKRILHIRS
safety screen panel of human pharmacological targets (Homo sapiens, UniProt P25021), sequence (P25021 whole entry): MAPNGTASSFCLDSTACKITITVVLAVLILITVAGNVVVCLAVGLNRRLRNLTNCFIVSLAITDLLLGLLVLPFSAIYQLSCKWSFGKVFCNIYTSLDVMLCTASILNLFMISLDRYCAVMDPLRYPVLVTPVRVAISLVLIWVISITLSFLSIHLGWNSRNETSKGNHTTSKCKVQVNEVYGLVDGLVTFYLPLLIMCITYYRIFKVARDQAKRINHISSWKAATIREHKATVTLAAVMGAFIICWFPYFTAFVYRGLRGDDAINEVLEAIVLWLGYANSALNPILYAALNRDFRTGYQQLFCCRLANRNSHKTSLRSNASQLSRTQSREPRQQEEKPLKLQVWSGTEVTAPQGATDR

Take `CCCCCc1cc(O)c2c(c1)OC(C)(C)[C@@H]1CCC(C)=C[C@@H]21` [VB301, Δ9-Terahydrocannabinol, reference compound]: the inhibition at 10 µM in assay [1] is 14%; in assay [2], 87%; in [3] it was -6%; in assay [4] it was 1%; in assay [5], -27%; in [6], 43%. In addition, the inhibition at 10 µM in assay [7] stood at 8%; in assay [8], 13%; in [9], 89%; in [10] it was 26%.
In the case of `CCCCCc1cc(O[C@@H]2O[C@H](CO)[C@@H](O)[C@H](O)[C@H]2O)c2c(c1)OC(C)(C)[C@@H]1CCC(C)=C[C@@H]21` [VB302, Δ9THC-1-O-glucopyranoside], the inhibition at 10 µM was -21% in [1]; -31% in assay [2]; -11% in assay [3]; 7% in assay [4]; 6% in [5]; 5% in assay [6]. Also, the inhibition at 10 µM in assay [7] is 10%; in assay [8], 4%; in assay [9] it was -5%; in assay [10] it was -1%.
For the compound `CCCCCc1cc(O[C@@H]2O[C@H](CO[C@@H]3O[C@H](CO)[C@@H](O)[C@H](O)[C@H]3O)[C@@H](O[C@@H]3O[C@H](CO)[C@@H](O)[C@H](O)[C@H]3O)[C@H](O)[C@H]2O)c2c(c1)OC(C)(C)[C@@H]1CCC(C)=C[C@@H]21` [VB311], the inhibition at 10 µM in assay [1] is 9%; in assay [2], 17%; in assay [3], -10%; in assay [4], 0%; in assay [5], -6%; in [6] it was 0%. Moreover, the inhibition at 10 µM in [7] is -7%; in [8], 10%; in assay [9] it was 5%; in [10], -7%.
